Assay results taken from US10653131B2 (priority 2013, dated 2020).

Test system: spores of Bacillus thuringiensis

## O=[N+]([O-])O [nitric acid]
  destruction, inactivation of spores: ensured destruction, inactivation
